One experiment deals with Mysidopsis bahia. Put plainly: 48 hour acute static renewal toxicity bioassay, Mysidopsis bahia (E.P.A./600/4-85/013). The class given is in vivo. The following applies: EPA Probit Analysis. The method, then: (§1) A nutrient mixture and coating were prepared as described in example 1. The toxicity of the product as expressed by reduced survival of organisms exposed to various dilutions of the product was determined through a 48 hour acute static renewal bioassay using Mysidopsis bahia and Cyprinodon variegatus. E.P.A./600/4-85/013 test protocol was followed. All organisms were maintained at room temperature with a light/dark cycle of 16/8. Dilution water was made from Tropic Marine Synthetic Sea Salt and was aerated for 24 hours before use in the test. The test was performed in 600 ml polypropylene diSPo beakers rinsed in the dilution water. Ten organisms of Mysidopsis bahia were placed in 200 ml of dilution water making a 5 cm depth. Ten organisms of Cyprinodon variegatus were placed in 500 ml of dilution water making a 9.5 cm depth.
(§2) Dissolved oxygen, pH, conductivity and salinity, alkalinity and hardness were measured before water renewal. CdCl supplied by the E.P.A. was used as the reference toxicant for both of the Mysidopsis and Cyprinodon organisms. Both the Mysidopsis and the Cyprinodons used in this test were obtained from Aquatox, Inc., and were approximately 27 days old at the time of testing. Both batches of organisms were acclimated to the proper salinity, by adding 300 ml of synthetic, fresh water, every hour until test initiation. […]

Another experiment has as its system Cyprinodon variegatus. The experiment in a line: 48 hour acute static renewal toxicity bioassay, Cyprinodon variegatus (E.P.A./600/4-85/013). The class given is in vivo. The following applies: EPA Probit Analysis. The method, then:
as §1, §2

The results in this text go back to patent US5725885A, “Composition for enhanced bioremediation of oil” (BioNutraTech, priority 1995, dated 1998).

For `[Cl][Cd][Cl]` [CdCl], the “EC50 (reduced survival), reference toxicant” value in the experiment on Mysidopsis bahia came out at 0.1185 µg/mL; in the experiment on Cyprinodon variegatus, 7.8237 µg/mL.
